Experimental data: US20240067603A1, “CUBANYL BIGUANIDE COMPOUNDS” (REGENTS OF THE UNIVERSITY OF MINNESOTA, priority 2020, published 2024)
Where two headings read alike, the source gives them in different places.

What was measured:
MCF10A cells = test: Crystal violet cell proliferation assay, MCF10A; format: cell-based; settings: Homo sapiens, MCF-10A, 72 hours
Procedure: (§1) Cell proliferation assay: The cells mentioned in this study were seeded in 96 wells-plates (2000-4000 cells/well) and treated 24 hours later with DMSO (vehicle control), HCB or HBB drugs at the indicated concentrations. 72 hours later, the cells were fixed in situ with 25% (v/v) glutaraldehyde, followed by staining with 0.52% crystal violet (CV) in 25% methanol (Fisher Chemical). The CV stained plates were solubilized in 100 mM sodium citrate in 50% ethanol solution and absorbance of the stain measured at 550 nm using a plate reader. Each data point represents mean±SD, obtained from six wells per treatment performed in biological triplicates. All reagents were from Sigma-Aldrich unless otherwise stated.

Vero cells = test: Cytotoxicity assay in Vero cells
LR/FR MCF7A1C cells = test: Crystal violet cell proliferation assay, LR,FR-MCF7AC1; format: cell-based, human; settings: for IC50: Homo sapiens, read-out: IC50, LR/FR MCF7A1C cells
Procedure: Derivation process of LR-FR- and LR-FR-PR resistant MCF7AC1 cells. The letrozole-resistant MCF7AC1 cell line (LR-MCF7AC1) was generated in vivo from the aromatase-expressing MCF7A C1 tumor-bearing athymic female nude mice that received letrozole therapy (10 μg/day, five days a week) over a period of 27 weeks. To facilitate tumor growth mice also received the estrogen precursor androstenedione (100 μg/day, five days a week), which is intratumorally converted by aromatase into estradiol (Yue W, et al. Cancer Res. 1994; 54(19):5092-5). With the emergence of the letrozole resistant tumors, these tumors were harvested from in vivo and the LR-MCF7AC1 cell line was established in vitro (Jayaraman S., et al. Breast Cancer Res. 2020; 22(1):51), where the cells grew in phenol-red free IMEM+10% FBS media containing antibiotics.
In a second in vivo study, the LR-MCF7AC1 tumor-bearing athymic female nude mice were randomized to multiple endocrine therapies including fulvestrant therapy (1000 μg/day, five days a week). One mouse harboring the LR-MCF7AC1 tumor began to develop resistance to fulvestrant therapy at 31 weeks of treatment. This fulvestrant-resistant LR-MCF7AC1 tumor was harvested from mice and reimplanted into mice for two successive generations. The 2nd generation tumor was harvested from in vivo and the LR,FR-MCF7AC1 cell line was established in vitro, where the cells grew in phenol-red free IMEM+10% FBS media containing antibiotics.
as §1, with “All reagents were from Sigma-Aldrich unless otherwise stated.” left out

BT474 = test: Inhibition of mammary carcinoma cell line BT474; format: cell-based; settings: BT-474; Table 5; BT474, human, ERα+, HER2+
Procedure: (§2) 3-(4,5-Dimethylthiazol-2-yl)-2,5-diphenyltetrazolium Bromide (MTT) Cell Proliferation Assay. To cells grown in 96-well-tissue culture plate, 20 μl/well of MTT solution (5 mg/ml in PBS) was added. After 1-2 hours incubation at 37° C., the plate was centrifuged. Supernatant was discarded and 100 μl DMSO was added to dissolve water insoluble formazan, and the absorbance was read at 540 nm with a plate reader.

LR/FR/PR MCF7A1C cells = test: Crystal violet cell proliferation assay, LR,FR,PR-MCF7AC1; format: cell-based; settings: Homo sapiens, read-out: IC50, LR/FR/PR MCF7A1C cells
Procedure: Cell proliferation assay: The cells mentioned in this study were seeded in 96 wells-plates (2000-4000 cells/well) and treated 24 hours later with DMSO (vehicle control), HCB or HBB drugs at the indicated concentrations. […] The CV stained plates were solubilized in 100 mM sodium citrate in 50% ethanol solution and absorbance of the stain measured at 550 nm using a plate reader. Each data point represents mean±SD, obtained from six wells per treatment performed in biological triplicates.

EO771 [1] = test: Inhibition of mammary carcinoma cell line EO771; format: cell-based, mouse (C57BL/6); settings: Mus musculus; Table 5; EO771, C57BL/6, Basal, HER2−
Procedure: as §2

mm001 = test: Oxygen consumption rate (OCR), mm001; format: cell-based, mouse (C57BL/6)
Procedure: (§3) Measurement of oxygen consumption rate (OCR). Cells were maintained in growth medium consisting of 10% FBS at 37° C. with 5% CO2 and seeded at 25,000 cells per well in a 96-well XF96 cell culture microplates (Agilent, Santa Clara, CA). An 96 well XF sensor cartridge was hydrated and equilibrated with 200 ul calibrant in each well at 37° C. without CO2 overnight. Growth media was replaced with 150 μL DMEM based assay media (a non-buffered medium including 2 mM L-glutamine but no sodium bicarbonate (buffering agent), glucose, or sodium pyruvate, Agilent, Santa Clara, CA) the next day and cells were incubated CO2 free for 1 hour before the measurement of OCR by a Seahorse XFe Extracellular Flux Analyzer (Agilent, Santa Clara, CA), which measures uptake and excretion of metabolic end products in real time. After baseline measurements, 20 μl assay medium containing control vehicle or drugs were injected into corresponding wells. OCRs were measured periodically and can be reported in pmoles/minute or normalized against baseline measurements before treatment.

CYP2C8 = biological target: T1, CYP2C8 (Homo sapiens, UniProt P10632); test: Stability with recombinant human CYP2C8; format: in vitro ADME; settings: 10 μM HCB, recombinant human CYP2C8, NADPH 2 mM
T1 construct: purchased Corning; host or cells: insect cells (microsomes)
T1 sequence (P10632 1-490): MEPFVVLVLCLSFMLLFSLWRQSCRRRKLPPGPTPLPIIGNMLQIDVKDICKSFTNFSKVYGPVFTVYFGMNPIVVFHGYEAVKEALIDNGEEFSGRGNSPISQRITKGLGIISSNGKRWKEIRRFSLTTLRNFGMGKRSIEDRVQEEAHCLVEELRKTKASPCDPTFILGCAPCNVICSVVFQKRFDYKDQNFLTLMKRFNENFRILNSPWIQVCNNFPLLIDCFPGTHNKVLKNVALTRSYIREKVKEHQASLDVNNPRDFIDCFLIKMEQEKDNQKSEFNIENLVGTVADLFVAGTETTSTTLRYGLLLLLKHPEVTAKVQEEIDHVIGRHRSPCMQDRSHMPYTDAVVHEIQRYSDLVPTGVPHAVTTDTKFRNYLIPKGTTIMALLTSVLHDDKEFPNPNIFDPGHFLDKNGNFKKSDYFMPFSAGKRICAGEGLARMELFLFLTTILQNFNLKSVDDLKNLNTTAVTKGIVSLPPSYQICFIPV
Procedure: Stability of HCB with recombinant human CYP3A4 and CYP2C8 enzymes was evaluated. 10 μM HCB was tested wich CYP3A4 and 2C8 (200 pmol/L) (Table 8). NADPH (2 mM) was added as a cofactor. Total volume was 200 μL.
HCB was incubated for 0, 30, or 60 min at 37° C. Incubations were quenched with 2 volumes of acetonitrile followed by centrifugation for 10 min at 16,000 g.

EO771 [2] = test: Oxygen consumption rate (OCR), EO771; format: cell-based, mouse (C57BL/6)
Procedure: as §3

CCCCCCNC(=N)NC(=N)NCc1ccccc1 [HBB, N1-hexyl-N5-benzyl-biguanide]
IC50 (MCF10A cells): 5.2 µM | CC10 (Vero cells): 0.091 µM | IC50 (LR/FR MCF7A1C cells; 72 h): 3900 nM | IC50 (BT474): 23.2 µM | IC50 (LR/FR/PR MCF7A1C cells; 72 h): 4.9 µM | IC50 (EO771 [1]): 21.7 µM

CCCCCCNC(=N)NC(=N)NCC12C3C4C5C3C1C5C42 (stereo not drawn) [HCB, Hexyl Cubanomethyl Biguanide]
IC50 (MCF10A cells): 2.5 µM | OCR Inhibition [HCB] (uM) v vs. control (P < 0.05) (mm001): 10 µM | parent metabolite peak area after 60 min (CYP2C8): 99.78% | CC10 (Vero cells): 0.201 µM | IC50 (LR/FR MCF7A1C cells; letrozole- and fulvestrant-resistant, 72 hours, crystal violet): 1300 nM | fold increase in sensitivity, HCB vs HBB (LR/FR MCF7A1C cells; LR/FR and LR/FR/PR MCF7A1C cells): ~3 fold | IC50 (BT474): 10.9 µM | IC50 (LR/FR/PR MCF7A1C cells; letrozole-, fulvestrant- and palbociclib-resistant, 72 hours, crystal violet): 1.7 µM | OCR Inhibition [HCB] (uM) v vs. control (P < 0.05) (EO771 [2]): 20 µM
